Laboratory results taken from the supplement of paper PMC10307832.

Columns and labels:
Assay in all cases: relative viability (nuclei count vs DMSO), 5 days (fraction); higher = more cells survive
[1] = compound: CN1C=C(C2=CC=CC=C21)/C=C\3/C4=C(C=CC=N4)NC3=O + CC(=O)c1c(C)c2cnc(Nc3ccc(N4CCNCC4)cn3)nc2n(C2CCCC2)c1=O [Palbociclib] (partner 0.5 µM)
In short: (§1)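 Dosing by pin tool came one day after lung cancer cell lines were seeded in 1536-well plates, using either one drug or a fixed anchor-drug dose plus five library-drug doses (not always all listed) in √10 steps. After 5 days, nuclei were counted on 4× images. Relative viability is treated-well nuclei count divided by vehicle-well nuclei count, and values are medians of duplicate plates.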

Trametinib + Vorinostat = compound: CC(=O)Nc1cccc(-n2c(=O)n(C3CC3)c(=O)c3c(Nc4ccc(I)cc4F)n(C)c(=O)c(C)c32)c1 [Trametinib] + O=C(CCCCCCC(=O)Nc1ccccc1)NO [Vorinostat] (partner 1 µM)
In short: as §1

Trametinib + Pictilisib = compound: CC(=O)Nc1cccc(-n2c(=O)n(C3CC3)c(=O)c3c(Nc4ccc(I)cc4F)n(C)c(=O)c(C)c32)c1 [Trametinib] + CS(=O)(=O)N1CCN(Cc2cc3nc(-c4cccc5[nH]ncc45)nc(N4CCOCC4)c3s2)CC1 [Pictilisib] (partner 1 µM)
In short: as §1

[2] = compound: CN1C=C(C2=CC=CC=C21)/C=C\3/C4=C(C=CC=N4)NC3=O + C[C@]1(O)C[C@@H](c2nc(-c3ccc4ccc(-c5ccccc5)nc4c3)c3c(N)nccn32)C1 [Linsitinib] (partner 1 µM)
In short: as §1

| Cell Line | relative viability ([1]; first compound 0.02 µM) | relative viability ([1]; first compound 0.06325 µM) | relative viability ([1]; first compound 0.6325 µM) | relative viability ([1]; first compound 2 µM) | relative viability (Trametinib + Vorinostat; first compound 0.0025 µM) | relative viability (Trametinib + Vorinostat; first compound 0.007906 µM) | relative viability (Trametinib + Vorinostat; first compound 0.025 µM) | relative viability (Trametinib + Vorinostat; first compound 0.07906 µM) | relative viability (Trametinib + Vorinostat; first compound 0.25 µM) | relative viability (Trametinib + Pictilisib; first compound 0.0025 µM) | relative viability (Trametinib + Pictilisib; first compound 0.007906 µM) | relative viability (Trametinib + Pictilisib; first compound 0.025 µM) | relative viability (Trametinib + Pictilisib; first compound 0.07906 µM) | relative viability (Trametinib + Pictilisib; first compound 0.25 µM) | relative viability ([2]; first compound 0.02 µM) | relative viability ([2]; first compound 0.06325 µM) | relative viability ([2]; first compound 0.6325 µM) | relative viability ([2]; first compound 2 µM) | relative viability ([2]; first compound 0.2 µM) | relative viability ([1]; first compound 0.2 µM) |
| --- | --- | --- | --- | --- | --- | --- | --- | --- | --- | --- | --- | --- | --- | --- | --- | --- | --- | --- | --- | --- |
| NCI-H650 | 0.385 | 0.341 | 0.356 | 0.391 | 0.528 | 0.585 | 0.392 | 0.569 | 0.667 | 1.05 | 1.18 | 0.998 | 0.919 | 0.565 | 0.91 | 0.955 | 0.677 | 0.807 |  |  |
| IA-LM |  |  |  |  | 0.744 | 0.604 | 0.255 | 0.125 | 0.12 | 0.142 | 0.091 | 0.073 | 0.0818 | 0.0673 | 0.85 | 0.668 | 0.762 | 0.771 | 0.477 |  |
| A-427 | 0.577 | 0.492 | 0.514 | 0.572 | 0.948 | 0.896 | 0.723 | 0.501 | 0.51 | 0.632 | 0.426 | 0.2 | 0.184 | 0.164 | 1.06 | 1.07 | 1.15 | 1.12 |  |  |
| NCI-H2347 | 0.418 | 0.41 | 0.395 | 0.416 | 0.467 | 0.358 | 0.289 | 0.329 | 0.358 | 0.452 | 0.301 | 0.221 | 0.229 | 0.272 | 0.998 | 0.963 | 0.986 | 0.959 | 0.944 | 0.398 |
| NCI-H1793 | 0.322 | 0.39 | 0.275 | 0.296 | 0.579 | 0.432 | 0.317 | 0.317 | 0.221 | 0.4 | 0.314 | 0.169 | 0.307 | 0.232 | 1 | 1.06 | 0.95 | 0.884 | 0.748 | 0.285 |
| NCI-H1651 | 0.563 | 0.492 | 0.5 | 0.542 | 0.546 | 0.546 | 0.466 | 0.505 | 0.505 | 0.5 | 0.488 | 0.406 | 0.49 | 0.389 | 0.958 | 0.989 | 1.06 | 1.05 | 1.03 | 0.554 |
| NCI-H1792 | 0.624 | 0.679 |  | 0.559 |  |  |  |  |  | 0.227 | 0.183 | 0.182 | 0.152 | 0.104 | 0.37 | 0.495 |  | 0.486 | 0.391 | 0.656 |
| ChaGo-K-1 | 0.922 | 0.936 | 0.89 | 0.909 | 0.659 | 0.623 | 0.685 | 0.731 | 0.418 | 0.841 | 0.47 | 0.694 | 0.261 | 0.461 |  |  |  |  |  | 0.853 |
